# In patent US9458089B2, “Phenoxy alkyl diethanolamine and diisopropanolamine compounds for delivering active agents” (EMISPHERE TECHNOLOGIES, INC., priority 2012, dated 2016):
# pIC50: −log10 of the molar value. Structures can show the parent of a compound that is named as a salt.
# Biological target: T1, hERG channels (Homo sapiens, UniProt Q12809)
# T1 construct: expressed in transfected cells
# Assay: hERG patch clamp on clone hERG channels in mammalian cells
# Type: cell-based
# Conditions: test article 1 μm, cisapride positive control, read-out: Experimental hERG Activity
# Description: hERG activity was measured using a patch clamp method on clone hERG channels in mammalian cells. The concentration of test articles was 1 μm and a comparison was made to both a positive (cisapride) and negative (vehicle) control.
# T1 sequence (Q12809 whole entry): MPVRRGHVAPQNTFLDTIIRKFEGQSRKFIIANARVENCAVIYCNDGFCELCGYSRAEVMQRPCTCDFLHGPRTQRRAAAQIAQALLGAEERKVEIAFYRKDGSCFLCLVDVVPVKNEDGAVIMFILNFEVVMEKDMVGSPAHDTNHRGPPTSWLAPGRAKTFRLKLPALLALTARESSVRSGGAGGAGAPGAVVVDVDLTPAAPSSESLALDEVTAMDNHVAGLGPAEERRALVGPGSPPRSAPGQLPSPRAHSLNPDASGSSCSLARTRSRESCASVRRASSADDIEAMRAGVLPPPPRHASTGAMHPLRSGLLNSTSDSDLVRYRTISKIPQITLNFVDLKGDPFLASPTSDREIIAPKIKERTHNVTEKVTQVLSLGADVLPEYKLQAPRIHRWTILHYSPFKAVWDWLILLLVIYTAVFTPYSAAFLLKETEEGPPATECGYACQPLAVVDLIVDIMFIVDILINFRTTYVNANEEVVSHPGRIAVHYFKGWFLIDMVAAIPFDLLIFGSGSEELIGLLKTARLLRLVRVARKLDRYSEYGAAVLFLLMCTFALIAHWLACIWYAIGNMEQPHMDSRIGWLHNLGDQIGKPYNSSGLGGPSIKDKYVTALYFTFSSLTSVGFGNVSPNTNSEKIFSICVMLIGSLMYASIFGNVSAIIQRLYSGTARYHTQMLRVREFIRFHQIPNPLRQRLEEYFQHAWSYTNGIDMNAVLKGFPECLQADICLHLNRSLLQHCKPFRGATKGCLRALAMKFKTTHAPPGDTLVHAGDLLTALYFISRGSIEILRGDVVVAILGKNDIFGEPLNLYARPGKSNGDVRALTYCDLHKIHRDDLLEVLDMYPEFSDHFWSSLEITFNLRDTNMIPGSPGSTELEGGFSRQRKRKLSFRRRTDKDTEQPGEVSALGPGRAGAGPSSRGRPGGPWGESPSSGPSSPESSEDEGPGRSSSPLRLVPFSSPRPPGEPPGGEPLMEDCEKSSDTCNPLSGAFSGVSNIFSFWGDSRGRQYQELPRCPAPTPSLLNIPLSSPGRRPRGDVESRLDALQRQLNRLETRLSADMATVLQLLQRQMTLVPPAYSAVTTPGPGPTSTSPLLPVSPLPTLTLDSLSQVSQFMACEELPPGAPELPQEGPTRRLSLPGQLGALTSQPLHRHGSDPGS
row,Structure (SMILES),pIC50
1,Cc1ccc(C)c(OCCCCCCN(CCO)CCO)c1,> 5.70
2,Cc1ccc(C)c(OCCCCCCCN2CCOCC2)c1,> 5.70
3,Cc1ccc(C)c(OCCCCCCCN(CCO)CCO)c1,> 5.70
4,OCCN(CCO)CCCCCCCCOc1ccccc1O,5.30 to 5.70

# Tested on: not given
# Assay: not given
# Conditions: not given
row,melting point,Structure (SMILES)
1,83 to 86 °C,"Cc1ccc(F)c(OCCCCN(CCO)CCO)c1 (as salt: hydrochloride) [Compound 2-FPBD, 4-(2-fluoro-5-methylphenoxy)butyldiethanolamine]"
2,95 to 97 °C,"OCCN(CCO)CCCCCCOc1ccccc1O (as salt: hydrochloride) [Compound 2-HPHD, 6-(2-hydroxyphenoxyl)hexyldiethanolamine]"
